Laboratory results taken from US6884589B2, “Model for myeloid cell growth, differentiation and disease” (Regents of the University of California, priority 2000, dated 2005).

How the values were obtained:
Assay type in all cases: cell-based, murine
Settings in all cases: 10 μM atRA for 4 days
[1] = tested on: PML/RARα ECoM-G derivatives; test: atRA treatment of ECoM-G clones arrested in differentiation by PML/RARα
Experimental: (§1) Retroviral infection of ECoM-G cells with heterologous oncoproteins. Helper-free retrovirus was generated for wild-type E2a-Pbx1, Hoxa7, Hoxa9, Nup98/HoxA9, Hoxb8, AML1/ETO, PML/RARα and PLZF/RARα constructs cloned into the multiple cloning site of the MSCVneo and MSCVpac retroviral vectors. ECoM-G cells (250,000) from 3 different clones were transduced by spinoculation (as described above) and selected 5 days in G418 (1 mg/ml) or puromycin (1 μg/ml). The cells were washed and plated in media without estrogen. Only those cells that were capable of continued and indefinite proliferation in the absence of estrogen were expanded to generate RNA for Northern analysis.
Analysis of differentiation arrest induced by heterologous oncoproteins in E2a-Pbx1-ER expressing cells. The ECoM cells provide a system in which to dissect the mechanisms of action of oncogenes. Heterologous oncoproteins were introduced into ECoM-G clones by retroviral infection. Expression was verified by immunoblot assay and cells were assayed for the ability to re-establish differentiation arrest following estrogen withdrawal. AML1/ETO, PML/RARα, Hoxa9, Hoxb8 and wild type E2a-Pbx1 prevented granulocytic differentiation of specific clones permitting their continued and indefinite proliferation in the presence of GM-CSF. […]

[2] = tested on: PLZF/RARα ECoM-G derivatives; test: atRA treatment of ECoM-G clones arrested in differentiation by PLZF/RARα
Experimental: as §1
Analysis of differentiation arrest induced by heterologous oncoproteins in E2a-Pbx1-ER expressing cells. The ECoM cells provide a system in which to dissect the mechanisms of action of oncogenes. Heterologous oncoproteins were introduced into ECoM-G clones by retroviral infection.

parental ECoM-G cells = test: atRA treatment of parental ECoM-G cells

## CC1=C(/C=C/C(C)=C/C=C/C(C)=C/C(=O)O)C(C)(C)CCC1 [atRA, all-trans-RA]
[1]
  response to atRA (proliferation, differentiation): stopped proliferating and underwent quantitative granulocytic differentiation
[2]
  response to atRA (proliferation, differentiation): stopped proliferating and underwent quantitative granulocytic differentiation
Parental ECoM-G cells
  response to atRA: completely unresponsive
